Source: ChEMBL document CHEMBL1201862, “PubChem BioAssay data set” (2004)
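A five-concentration, 48-hour dose response in 96-well plates underlies each endpoint, interpolated linearly between surrounding concentrations. GI50 is the concentration that inhibits growth by half.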 Calls of active or inactive are those of the source. No stated cut-off is given here; in the data, active = GI50 up to about 1.1 µM and inactive = higher.

Tests used:
Test in all cases: growth of human tumour cells (NCI), 48 h
M14 = system: M14
SNB-75 = system: SNB-75
HOP-62 = system: HOP-62
ACHN = system: ACHN
SNB-78 = system: SNB-78
HOP-92 = system: HOP-92
CAKI-1 = system: CAKI-1
DMS-273 = system: DMS-273
SR = system: SR
KM12 = system: KM12
KM-20L2 = system: KM-20L2
NCI-H522 = system: NCI-H522
NCI/ADR-RES = system: NCI/ADR-RES

Compound | GI50 (M14) | GI50 (SNB-75) | GI50 (HOP-62) | GI50 (ACHN) | GI50 (SNB-78) | GI50 (HOP-92) | GI50 (CAKI-1) | GI50 (DMS-273) | GI50 (SR) | GI50 (KM12) | GI50 (KM-20L2) | GI50 (NCI-H522) | GI50 (NCI/ADR-RES)
O=C(Nc1cccc([N+](=O)[O-])c1)C(=O)C(C(=O)c1ccccc1F)C1OC(=O)C2C=CC=CC21 (configuration not stated) | 38 µM (inactive) | 28.7 µM (inactive) | 50.9 µM (inactive) | 49.4 µM (inactive) | 36.6 µM (inactive) | > 100 µM (inactive) | 59.2 µM (inactive) | 31.7 µM (inactive) | 7.06 µM (inactive) | 27.3 µM (inactive) | 41.2 µM (inactive) | 18.9 µM (inactive) | 
N/C(=N\O)N/N=C\c1ccc(O)c(O)c1O |  | 17.3 µM (inactive) | > 41.1 µM (inactive) |  | > 51.3 µM (inactive) | > 55.3 µM (inactive) | 29.4 µM (inactive) | 13.6 µM (inactive) |  | 26.7 µM (inactive) | 26.7 µM (inactive) | 24.1 µM (inactive) | 19.5 µM (inactive)
S=c1sc2c(s1)SC(c1ccccc1)CS2 (configuration not stated) |  | > 45 µM (inactive) | > 90.8 µM (inactive) |  | > 100 µM (inactive) | > 64.4 µM (inactive) | 1 µM (active) | > 100 µM (inactive) |  | > 100 µM (inactive) | > 100 µM (inactive) | > 100 µM (inactive) | > 52 µM (inactive)
COc1ccc([C@H]2c3cc4c(cc3OC(O)(CO)[C@H]2C(=O)O)OCO4)c(OC)c1.COc1ccc([C@H]2c3cc4c(cc3OC3(O)COC(=O)[C@@H]23)OCO4)c(OC)c1 (some centres not stated) | > 100 µM (inactive) | 43.5 µM (inactive) | > 100 µM (inactive) | > 100 µM (inactive) | > 100 µM (inactive) | > 100 µM (inactive) |  | > 100 µM (inactive) | 56 µM (inactive) | > 100 µM (inactive) | > 100 µM (inactive) |  | 
O=C(Nc1ccc2[nH]c3c(-c4ccccc4)nccc3c2c1)c1ccccc1[N+](=O)[O-] | 2.99 µM (inactive) | 2.47 µM (inactive) |  | 3.94 µM (inactive) | 5.47 µM (inactive) | 3.56 µM (inactive) | 5.74 µM (inactive) | 1.76 µM (inactive) | 1.85 µM (inactive) | 3.97 µM (inactive) | 1.74 µM (inactive) |  | 
O=S(=O)(C1=CC(S(=O)(=O)c2ccccc2)CN(Cc2ccccc2)C1c1cccc2ccccc12)c1ccccc1 (configuration not stated) | > 69 µM (inactive) | > 69 µM (inactive) | > 69 µM (inactive) | > 69 µM (inactive) | > 69 µM (inactive) | 6.3 µM (inactive) | 20.7 µM (inactive) | > 69 µM (inactive) |  | > 69 µM (inactive) | > 69 µM (inactive) | > 69 µM (inactive) | 
COc1cc(/N=N\c2cccc(S(=O)(=O)O)c2)ccc1/N=N\c1ccc(/C=C/c2ccc(-n3on3-c3ccc(/C=C/c4ccc(/N=N/c5ccc(/N=N\c6cccc(S(=O)(=O)O)c6)cc5OC)cc4S(=O)(=O)O)c(S(=O)(=O)O)c3)cc2S(=O)(=O)O)c(S(=O)(=O)O)c1 |  | 91.8 µM (inactive) | > 100 µM (inactive) |  | > 100 µM (inactive) | > 86.1 µM (inactive) |  | > 69.5 µM (inactive) |  | > 100 µM (inactive) | > 100 µM (inactive) | > 100 µM (inactive) | > 100 µM (inactive)
